Here are results for two molecules from patent US4410512A, “Combinations having synergistic pituitary growth hormone releasing activity” (Beckman Instruments, Inc., priority 1981, dated 1983).

The subject of this assay is pituitaries. Briefly: In vitro growth hormone release study (incubated rat pituitaries, GH by RIA). The class given is cell-based. Particulars: mean of 9 assays ± SEM. As to the method:
Female rats of the CD-1 strain were housed in a constant temperature room at 24° C. with 14 hours light and 10 hours darkness. The rats were fed Purina brand rat chow ab libitum. All studies were started between 0800 and 1000 hours.
Pituitaries were removed from 20 day old female rats. In each polytetrafluoroethylene beaker (10 ml) was incubated two pituitaries at 36° C. in 1 ml of lactated Ringer's solution in a Dubnoff Shaker (90 cycles/min.). All medium in each beaker was removed each hour (e.g., P1, P2, I3, I4, I5) and then fresh medium was added back to each beaker. Each medium removed was assayed for GH, in duplicate, by a standard radioimmunoassay (RIA).
The growth hormone agonist of Example 1 was not added to the incubation mediums employed during the first hour of the incubation period (P1) or to the incubation mediums employed during the second hour of the incubation period (P2). The growth hormone agonist of Example 1 was dissolved in dimethylsulfoxide (DMSO; 10:1, agonist:DMSO), added to each incubation medium employed during the third hour of the incubation period (I3), to each medium employed during the fourth hour of the incubation period (I4), and to each medium employed during the fifth hour of the incubation period (I5). The release of growth hormone was recorded as ΔGH and calculated by subtracting the amount of GH released at P2 from that released at I3, I4, and I5. The agonist activity was determined from the release at I3, I4, and I5.

Square brackets hold non-standard residues; d marks the D form. Peptide text beside a SMILES is read from it.

For `C[C@H](NC(=O)[C@@H](Cc1c[nH]c2ccccc12)NC(=O)[C@@H](N)Cc1c[nH]cn1)C(=O)N[C@@H](Cc1c[nH]c2ccccc12)C(=O)N[C@H](Cc1ccccc1)C(=O)N[C@@H](CCCCN)C(N)=O` [H2 -His-D-Trp-Ala-Trp-D-Phe-Lys-NH2] (H-H[dW]AW[dF]K-NH2), the ΔGH is given as 887 ± 98 ng/ml incubation medium (peptide dosage 1 ng/ml incubation medium), 821 ± 138 ng/ml incubation medium (peptide dosage 3 ng/ml incubation medium) and 2,759 ± 315 ng/ml incubation medium (peptide dosage 10 ng/ml incubation medium).

With `C[C@H]1CCC[C@H](O)CCCCCc2cc(O)cc(O)c2C(=O)O1` [Zeranol, zeranol], the ΔGH was 83 ± 63 ng/ml incubation medium (zeranol dosage 300 ng/ml incubation medium, pituitaries of 20 day old female rats, I3-I5 minus P2); 87 ± 59 ng/ml incubation medium (zeranol dosage 3,000 ng/ml incubation medium); 683 ± 187 ng/ml incubation medium (zeranol dosage 30,000 ng/ml incubation medium); -133 ± 98 ng/ml incubation medium (zeranol dosage 100,000 ng/ml incubation medium).
